According to PubChem BioAssay AID1996:
In brackets after ≈: the same amount, converted by molar mass.

Conditions: buffer; pH 7.4; 200.0 µM
In the case of `O=C(Nc1ccccc1)Oc1ccccc1N1CCOCC1`, the solubility kinetic is reported as 0.0319 mg/mL (≈ 107 µM).
For `O=C1ON=C(c2ccccc2)/C1=C/c1ccc(O)c(O)c1`, the solubility kinetic was greater than 0.0422 mg/mL.
With `Cc1ccc(S(=O)(=O)N2CCOCC2)cc1C(=O)N1CCN(c2ccc(C(F)(F)F)cn2)CC1` the solubility kinetic was 0.0688 mg/mL (≈ 138 µM).
With `COc1ccc(OC)c(-n2c(C)cc(C=O)c2C)c1` the solubility kinetic was greater than 0.0389 mg/mL.
In the case of `Cc1ccc(S(=O)(=O)c2c(C)cc(C)[nH]c2=O)c(C)c1`, the solubility kinetic is reported as greater than 0.0437 mg/mL.
Compound `COc1ccc(OCC(=O)Nc2ccc(N3CCC(C)CC3)cc2)cc1` has a solubility kinetic of less than 0.0004 mg/mL.
`CC(C)N1CCC(=NNC(=O)c2cccs2)CC1` showed a solubility kinetic greater than 0.0398 mg/mL.
For `CCc1cc2c(=O)oc(-c3ccc(F)cc3)nc2s1`, the solubility kinetic was less than 0.0006 mg/mL.
Work on `O=c1oc2ccccc2cc1-c1csc(Nc2ccc(O)cc2)n1` yielded a solubility kinetic of 0.0017 mg/mL (≈ 5.05 µM).
For `O=C(Nc1cccc(S(=O)(=O)N2CCOCC2)c1)c1cc(=O)[nH]c2ccccc12`, the solubility kinetic was 0.0099 mg/mL (≈ 23.9 µM).
`CCOP(=O)(OCC)C(Nc1ccc(C(=O)O)cc1)c1ccccc1` (stereo not given) showed a solubility kinetic greater than 0.0545 mg/mL.
`OC1CCCN(CC(O)c2ccccc2)C1` (stereo not given) showed a solubility kinetic of 0.025 mg/mL (≈ 113 µM).
With `CCOC(=O)c1cn(C2CC2)c2c(F)c(F)c(F)cc2c1=O` the solubility kinetic was 0.0427 mg/mL (≈ 137 µM).
Work on `COc1ccc(C(=O)NCCSCc2cccc(Cl)c2)cc1OC` yielded a solubility kinetic of 0.0063 mg/mL (≈ 17.2 µM).
`COC(=O)c1scc(S(=O)(=O)C(C)(C)C)c1-n1cccc1` gave a solubility kinetic of 0.0356 mg/mL (≈ 109 µM).
Work on `O=C(COC(=O)c1ccccc1O)NC(c1ccccc1)c1ccccc1` yielded a solubility kinetic of 0.0059 mg/mL (≈ 16.3 µM).
Compound `CCOc1ccc(NC(=O)c2c3c(nc4ccccc24)CCC3)cc1` has a solubility kinetic of 0.0014 mg/mL (≈ 4.21 µM).
`Cc1cccc(C(CC(=O)NCc2ccco2)c2ccccc2)c1O` (stereo not given) showed a solubility kinetic greater than 0.0503 mg/mL.
Compound `CC1CCN(C(=O)COC(=O)c2ccccc2C(=O)c2ccccc2)CC1` has a solubility kinetic greater than 0.0548 mg/mL.
For `Cc1nc(N)sc1-c1csc(Nc2cccc(C(=O)O)c2)n1`, the solubility kinetic was greater than 0.0499 mg/mL.
`O=c1[nH]c2ccc(S(=O)(=O)Nc3ccccc3O)cc2[nH]1` showed a solubility kinetic greater than 0.0458 mg/mL.
Work on `COc1ccc(C)cc1-n1c(C)cc(C=O)c1C` yielded a solubility kinetic of 0.0364 mg/mL (≈ 150 µM).
In the case of `Cc1ccnc(SC2CC(=O)N(c3ccc(Cl)cc3)C2=O)n1` (stereo not given), the solubility kinetic is reported as greater than 0.0501 mg/mL.
In the case of `CC(=O)Nc1nccc(-c2cc(-c3ccccc3)no2)n1`, the solubility kinetic is reported as 0.0021 mg/mL (≈ 7.49 µM).
In the case of `O=c1c2ccccc2[nH]c(=S)n1Cc1ccccc1Cl`, the solubility kinetic is reported as 0.0009 mg/mL (≈ 2.97 µM).
`O=C(/C=C/c1ccco1)OCC(=O)N1CCCCC1` gave a solubility kinetic greater than 0.0395 mg/mL.
For `CC1C(=O)C(C)(C)C(=O)OC1c1ccc([N+](=O)[O-])cc1` (stereo not given), the solubility kinetic was 0.0124 mg/mL (≈ 44.7 µM).
Compound `c1ccc2nc3c(cc2c1)CCCCC3` has a solubility kinetic of 0.0034 mg/mL (≈ 17.2 µM).
Compound `COc1ccc(C)cc1NC(=O)Nc1ccccc1SC` has a solubility kinetic of 0.0013 mg/mL (≈ 4.3 µM).
Work on `Cc1cccc(C)c1OCCCCN1CCNCC1.O=C(O)C(=O)O` yielded a solubility kinetic of 0.046 mg/mL.
`Oc1ccc2ccccc2c1C=Nc1ccccc1` showed a solubility kinetic of less than 0.0005 mg/mL.
For `Cc1ccc2oc(=O)n(Cc3ccc(OC(C)C)cc3)c2c1`, the solubility kinetic was 0.001 mg/mL (≈ 3.36 µM).
`Cc1ccc(S(=O)(=O)/N=C2\C=C(Nc3ccc(O)cc3)C(=O)c3ccccc32)cc1` showed a solubility kinetic of 0.0009 mg/mL (≈ 2.15 µM).
With `O=C(O)/C=C/c1cn(-c2ccccc2)nc1-c1ccccc1` the solubility kinetic was greater than 0.0435 mg/mL.
`CCN(CC)c1ccc(C(=S)NC2CCCCC2)cc1` showed a solubility kinetic of 0.002 mg/mL (≈ 6.89 µM).
`O=C(COC(=O)C1=COCCO1)Nc1ccccc1OC(F)F` gave a solubility kinetic greater than 0.0494 mg/mL.
With `Cc1cc(C)cc(C(=O)NC2CC(C)(C)NC(C)(C)C2)c1` the solubility kinetic was greater than 0.0433 mg/mL.
Work on `COc1ccc(CNCc2ccc(C)cc2)c(OC)c1.O=C(O)C(=O)O` yielded a solubility kinetic of 0.0405 mg/mL.
With `Cc1cccc(Cn2c(=O)oc3ccc(C)cc32)c1` the solubility kinetic was 0.0045 mg/mL (≈ 17.8 µM).
With `Cl.O=C(OCCN1CCOCC1)c1ccccc1Cl` the solubility kinetic was greater than 0.0459 mg/mL.
`Cc1ccccc1NC(=O)CC(=O)c1ccccc1` showed a solubility kinetic greater than 0.038 mg/mL.
`O=C(COC(=O)/C=C/c1ccccc1[N+](=O)[O-])Nc1ccc2[nH]c(=O)[nH]c2c1` gave a solubility kinetic of 0.01 mg/mL (≈ 26.2 µM).
`CCN(CC)C(=O)c1cc2c(=O)n3cccc(C)c3nc2s1` showed a solubility kinetic of 0.0434 mg/mL (≈ 138 µM).
For `Cc1ccc(OCC(=O)NCCO)c(Br)c1`, the solubility kinetic was greater than 0.0432 mg/mL.
`Cc1cc(=O)[nH]c(SCc2ccccc2)n1` gave a solubility kinetic greater than 0.0348 mg/mL.
With `Cc1cccc(NC(=S)NCCc2ccc3c(c2)OCCO3)c1C` the solubility kinetic was 0.0277 mg/mL (≈ 80.9 µM).
Work on `O=C(COC(=O)/C=C/c1ccc([N+](=O)[O-])cc1)NCc1cccs1` yielded a solubility kinetic of 0.0042 mg/mL (≈ 12.1 µM).
In the case of `COCCNC(=O)c1ccc(CSc2nc3ccccc3s2)cc1`, the solubility kinetic is reported as 0.0276 mg/mL (≈ 77 µM).
Work on `CCN1C(=O)CC(N2CCN(c3cccc(OC)c3)CC2)C1=O` (stereo not given) yielded a solubility kinetic greater than 0.0476 mg/mL.
For `CCOC(=O)Cc1csc(NC(=O)c2ccc([N+](=O)[O-])cc2[N+](=O)[O-])n1`, the solubility kinetic was greater than 0.057 mg/mL.
Compound `CC(=O)CN1C(=O)NC(c2ccccc2)(c2ccccc2)C1=O` has a solubility kinetic of 0.0339 mg/mL (≈ 110 µM).
In the case of `Cc1cc(C(=O)COC(=O)C23CC4CC(CC(O)(C4)C2)C3)c(C)n1C`, the solubility kinetic is reported as greater than 0.0518 mg/mL.
Compound `Cc1ccc(S(=O)(=O)N2CCOCC2)cc1NC(=O)c1ccc(F)cc1F` has a solubility kinetic of 0.0082 mg/mL (≈ 20.7 µM).
Compound `CC(=O)c1ccc(NC(=O)c2noc(C)c2[N+](=O)[O-])cc1` has a solubility kinetic of 0.0186 mg/mL (≈ 64.3 µM).
Compound `Cc1cccc(NCc2ccc([N+](=O)[O-])s2)c1` has a solubility kinetic of 0.0151 mg/mL (≈ 60.8 µM).
With `O=C(Nc1ccc(C(=O)Nc2ccccc2Cl)cc1)c1cccnc1` the solubility kinetic was 0.0023 mg/mL (≈ 6.54 µM).
For `COc1cc2c(cc1OC)C(C)N(C(=O)c1cc3c(C)cc(C)cc3[nH]1)CC2` (stereo not given), the solubility kinetic was 0.0047 mg/mL (≈ 12.4 µM).
With `CCCc1cc(=O)[nH]c(SCC(=O)NCCN2C(=O)CSC2=O)n1` the solubility kinetic was greater than 0.0556 mg/mL.
`Cc1ccc(Cc2c(C)[nH]c(=S)[nH]c2=O)cc1` gave a solubility kinetic of 0.0074 mg/mL (≈ 30 µM).
For `O=C(Nc1ccc2nccnc2c1)c1ccco1`, the solubility kinetic was greater than 0.0359 mg/mL.
